Measured values from the supplement of paper PMC6331611.
Values after ≈ are worked out from the molar mass of the structure shown. Where a name gives a salt, the structure may show the parent alone.

Columns and labels:
[1] = tested on: Salmonella enterica serovar Typhimurium SL1344; assay: intracellular MIC (10-fold luminescence reduction); higher = less potent; conditions: RAW264.7 macrophages
[2] = tested on: Salmonella enterica serovar Typhimurium SL1344
RAW264.7 = assay: cytotoxicity (LDH release relative to maximum lysis); higher = more toxic; conditions: 50 µM; 2 h

| Structure (SMILES) | intracellular MIC [1] [µM] | MIC ([2]; LPM pH 5.8) [µM] | MIC ([2]; MHB) [µM] | MIC ([2]; MOPS glucose minimal medium) [µM] | cytotoxicity (RAW264.7) [%] |
| --- | --- | --- | --- | --- | --- |
| C=CC1=C(C(=O)O)N2C(=O)[C@@H](NC(=O)/C(=N\O)c3csc(N)n3)[C@H]2SC1 [CEFDINIR] | > 50 | ≤ 0.78 | ≤ 0.78 | ≤ 0.78 | 19.4 |
| CCCCCCCCCCCCCCCC[n+]1ccccc1 [CETYLPYRIDINIUM CHLORIDE] | ≤ 0.78 | 12.5 | 50 | 12.5 | 63 |
| CN(C)[C@@H]1C(O)=C(C(N)=O)C(=O)[C@@]2(O)C(O)=C3C(=O)c4c(O)ccc(Cl)c4[C@@](C)(O)[C@H]3C[C@@H]12 [CHLORTETRACYCLINE HYDROCHLORIDE] | ≤ 0.78 | ≤ 0.78 | 25 | 6.25 | 8.37 |
| CN(C)[C@@H]1C(O)=C(C(N)=O)C(=O)[C@@]2(O)C(O)=C3C(=O)c4c(O)ccc(Cl)c4[C@@H](O)[C@H]3C[C@@H]12 [DEMECLOCYCLINE HYDROCHLORIDE] | ≤ 0.78 | ≤ 0.78 | 6.25 | 1.56 | 8.71 |
| Oc1cc(Cl)ccc1Oc1ccc(Cl)cc1Cl [TRICLOSAN] | 1.56 | ≤ 0.78 | ≤ 0.78 | ≤ 0.78 | 23.5 |
| CN1C[C@H](CNC(=O)OCc2ccccc2)C[C@@H]2c3cccc4c3c(cn4C)C[C@H]21 [METERGOLINE] | ≤ 0.78 | > 50 | > 50 | > 50 | 16.2 |
| CCn1cc(C(=O)O)c(=O)c2cc(F)c(N3CCNCC3)nc21 [ENOXACIN] | 3.13 | 6.25 (≈ 2 µg/mL) | ≤ 0.78 | ≤ 0.78 | 20.8 |
| CCn1cc(C(=O)O)c(=O)c2cc3c(cc21)OCO3 [OXOLINIC ACID] | 1.56 | 1.56 (≈ 0.408 µg/mL) | 3.13 (≈ 0.818 µg/mL) | ≤ 0.78 | 6.86 |
| C[C@H]1[C@H](NC(=O)/C(=N\OC(C)(C)C(=O)O)c2csc(N)n2)C(=O)N1S(=O)(=O)O [AZTREONAM] | 1.56 | ≤ 0.78 | ≤ 0.78 | ≤ 0.78 | 6.82 |
| [O-][n+]1ccccc1[S-].[O-][n+]1ccccc1[S-].[Zn+2] [PYRITHIONE ZINC] | 3.13 | ≤ 0.78 | 3.13 | 3.13 | 84.4 |
| CCOC(=O)C1=C(COCCN)NC(C)=C(C(=O)OC)C1c1ccccc1Cl (stereo not given) [AMLODIPINE BESYLATE] | > 50 | ≤ 0.78 | ≤ 0.78 | ≤ 0.78 | 22.5 |
| Oc1c(I)cc(Cl)c2cccnc12 [CLIOQUINOL] | > 50 | ≤ 0.78 | 50 (≈ 15.3 µg/mL) | 50 (≈ 15.3 µg/mL) | 20 |
| CNC(=O)Oc1ccc2c(c1)[C@]1(C)CCN(C)[C@@H]1N2C [PHYSOSTIGMINE SALICYLATE] | ≤ 0.78 | 12.5 (≈ 3.44 µg/mL) | > 50 | > 50 | 7.34 |
| CC(C)(O/N=C(\C(=O)N[C@@H]1C(=O)N2C(C(=O)[O-])=C(C[n+]3ccccc3)CS[C@H]12)c1csc(N)n1)C(=O)O [CEFTAZIDIME] | > 50 | ≤ 0.78 | 12.5 (≈ 6.83 µg/mL) | ≤ 0.78 | 20.8 |
| COc1cc(CNC(=O)CCCC/C=C/C(C)C)ccc1O [CAPSAICIN] | > 50 | > 50 | > 50 | > 50 | 19.5 |
| C[C@H]1c2cccc(O)c2C(=O)C2=C(O)[C@]3(O)C(=O)C(C(N)=O)=C(O)[C@@H](N(C)C)[C@@H]3[C@@H](O)[C@@H]21 [DOXYCYCLINE HYDROCHLORIDE] | ≤ 0.78 | 1.56 | 6.25 | 6.25 | 8.01 |

Second part, led by results:

| intracellular MIC [1] [µM] | MIC ([2]; LPM pH 5.8) [µM] | MIC ([2]; MHB) [µM] | MIC ([2]; MOPS glucose minimal medium) [µM] | Structure (SMILES) | cytotoxicity (RAW264.7) [%] |
| --- | --- | --- | --- | --- | --- |
| ≤ 0.78 | > 50 | 12.5 (≈ 10.2 µg/mL) | 12.5 (≈ 10.2 µg/mL) | CC[C@H]1OC(=O)[C@H](C)C(=O)[C@H](C)[C@@H](O[C@@H]2O[C@H](C)C[C@H](N(C)C)[C@H]2O)[C@](C)(OC)C[C@@H](C)C(=O)[C@H](C)[C@H]2N(CCCCn3cnc(-c4cccnc4)c3)C(=O)O[C@]12C [TELITHROMYCIN] | 20.8 |
| > 50 | ≤ 0.78 | ≤ 0.78 | ≤ 0.78 | O=c1[nH]c(=O)n([C@H]2C[C@H](O)[C@@H](CO)O2)cc1F [FLOXURIDINE] | 18.7 |
| 1.56 | > 50 | > 50 | > 50 | CCCNC(C)(C)COC(=O)c1ccccc1 [MEPRYLCAINE HYDROCHLORIDE] | 6.92 |
| > 50 | > 50 | > 50 | > 50 | C[C@]12CC[C@@H]3c4ccc(OC(=O)c5ccccc5)cc4CC[C@H]3[C@@H]1CC[C@@H]2O [ESTRADIOL BENZOATE] | 20.3 |
| > 50 | > 50 | > 50 | > 50 | CN[C@H]1CC[C@@H](c2ccc(Cl)c(Cl)c2)c2ccccc21 [SERTRALINE HYDROCHLORIDE] | 22.7 |
| ≤ 0.78 | > 50 | > 50 | > 50 | CNC[C@H](O)c1cccc(O)c1 [PHENYLEPHRINE HYDROCHLORIDE] | 6.89 |
| 6.25 | ≤ 0.78 | 12.5 (≈ 4.48 µg/mL) | 6.25 (≈ 2.24 µg/mL) | CS(=O)(=O)c1ccc([C@@H](O)[C@@H](CF)NC(=O)C(Cl)Cl)cc1 [FLORFENICOL] | 21.3 |
| ≤ 0.78 | ≤ 0.78 | > 50 | ≤ 0.78 | O=c1[nH]cc(F)c(=O)[nH]1 [FLUOROURACIL] | 8.29 |
| ≤ 0.78 | 1.56 | > 50 | > 50 | O=C(O)CN(CCN(CC(=O)O)CC(=O)O)CC(=O)O.[Na+].[Na+].[Na+] [TRISODIUM ETHYLENEDIAMINE TETRACETATE] | 8.27 |
| 1.56 | 1.56 (≈ 0.498 µg/mL) | ≤ 0.78 | ≤ 0.78 | CCn1cc(C(=O)O)c(=O)c2cc(F)c(N3CCNCC3)cc21 [NORFLOXACIN] | 8.22 |
| > 50 | > 50 | > 50 | > 50 | N[C@@H](Cc1cc(I)c(Oc2ccc(O)c(I)c2)c(I)c1)C(=O)O [LIOTHYRONINE] | 6.23 |
| > 50 | > 50 | > 50 | > 50 | CC(=O)[C@H]1CC[C@H]2[C@@H]3C[C@H](C)C4=CC(=O)CC[C@]4(C)[C@H]3[C@@H](O)C[C@]12C [MEDRYSONE] | 7.6 |
| ≤ 0.78 | 6.25 (≈ 1.41 µg/mL) | 12.5 (≈ 2.81 µg/mL) | 12.5 (≈ 2.81 µg/mL) | O=C1OCCN1/N=C/c1ccc([N+](=O)[O-])o1 [FURAZOLIDONE] | 6.45 |
| 3.13 | 3.13 | 12.5 | 6.25 | CCN1CCN(C(=O)N[C@@H](C(=O)N[C@@H]2C(=O)N3[C@@H]2SC(C)(C)[C@@H]3C(=O)O)c2ccccc2)C(=O)C1=O [PIPERACILLIN SODIUM] | 7.66 |
| 1.56 | ≤ 0.78 | > 50 | > 50 | O=C(O)CN(CCN(CC(=O)O)CC(=O)O)CCN(CC(=O)O)CC(=O)O [PENTETIC ACID] | 7.12 |
| > 50 | 12.5 (≈ 4.86 µg/mL) | > 50 | > 50 | COC(=O)C1=C(C)NC(C)=C(C(=O)OCC(C)C)C1c1ccccc1[N+](=O)[O-] (stereo not given) [NISOLDIPINE] | 20.8 |
